In patent US8835631B2, “Therapeutic agent for cerebral infarction” (Mitsubishi Tanabe Pharma Corporation, priority 2007, dated 2014):
Marks after values point to notes of the source that are not given here.

Experiment: Evaluation of bioavailability in rat
Type: in vivo, male SD(IGS) rats
Procedure: Test compound A, test compound B and test compound C were each dissolved in 0.5% aqueous HPMC (hydroxypropyl methylcellulose) solution in the case of oral administration, or in saline in the case of intravenous administration, and they were orally or intravenously administered to male SD(IGS) rats (Charles River Laboratories Japan) by 3 mg/kg. The concentration of unchanged drug in the plasma of each rat was measured, and bioavailability (F(%)) was calculated (F (%)=(AUC0-∞,p.o./AUC0-∞,i.v.,mean)×(Dosei.v./Dosep.o.)×100). The test compound was administered by gavage using an oral gavage needle (p.o.), or administered in the tail vein (i.v.). The blood samples were collected at 15 and 30 min, 1, 2, 4, 6, 8 and 24 hr after administration in the case of oral administration, and 5 and 30 min, 1, 2, 4, 6, 8 and 24 hr after administration in the case of intravenous administration.
The results are shown in Tables 4 (test compound A), 5 (test compound B) and 6 (test compound C). The Cmax values for i.v. in Tables 4, 5 and 6 show plasma concentration at 5 min after administration.

[1] = 3 mg/kg i.v., plasma, Mean + SD
[2] = 3 mg/kg p.o., plasma, Mean + SD

## CC(=O)NC1(c2ccc(CN3CCN(c4ncccn4)CC3)cc2)CC1.Cl [test compound A, N-(1-(4-((4-(pyrimidin-2-yl)piperazin-1-yl)methyl)phenyl)cyclopropyl)acetamide•hydrochloride]
[1]
  AUC0-24 h: 3850 ± 78.4 ngh/mL
  AUC0-∞: 3841.3 ± 77.4 ngh/mL
  Cmax (C5 min, plasma concentration at 5 min after administration): 2219.9 ± 103.8^2) ng/mL
3 mg/kg p.o. vs 3 mg/kg i.v., F = (AUC0-∞,p.o./AUC0-∞,i.v.,mean) × (Dosei.v./Dosep.o.) × 100
  F (bioavailability): 104.3%
[2]
  AUC0-24 h: 4032.9 ± 501.8 ngh/mL
  AUC0-∞: 4008.2 ± 491.5 ngh/mL
  Cmax: 1459.7 ng/mL
